Values of other authors in paper PMC3538728 (PLoS ONE, 2013).
Where two headings read alike, the source gives them in different places.

Experiments:
[1] = set-up: method as in PMID 19527190; settings: early in preclinical studies; cited from earlier work
[2] = cited from earlier work; for outcome in phase III clinical trials: relative to placebo
γ-secretase = target: γ-secretase; set-up: method as in PMID 19694467, PMID 21141968, PMID 19402777, PMID 22323718, PMID 22798753; settings: cited from earlier work

## C[C@H](NC(=O)[C@@H](O)c1cc(F)cc(F)c1)C(=O)N[C@@H]1C(=O)N(C)c2ccccc2-c2ccccc21 [LY-411,575, N2-[(2S)-2-(3,5-difluorophenyl)-2-hydroxyethanoyl]-N1-[(7S)-5-methyl-6-oxo-6,7-di hydro-5H-dibenzo[b,d]azepin-7-yl]-L-alaninamide]
[1]
  toxicity in preclinical studies: toxic side-effects

## NC(=O)[C@@H](CCC(F)(F)F)N(Cc1ccc(-c2ncon2)cc1F)S(=O)(=O)c1ccc(Cl)cc1 [avagacestat]
[2]; phase II
  outcome in phase II clinical studies: Dose dependent cognitive decline

## CC(C)[C@H](O)C(=O)N[C@@H](C)C(=O)N[C@@H]1C(=O)N(C)CCc2ccccc21 [semagacestat]
γ-secretase
  IC50: ~20 nM
[2]
  outcome in phase III clinical trials: irreversibly advance cognitive decline
[2]; listed as Semagacestat
  outcome in phase III clinical trials: toxic side-effects and irreversible cognitive decline
[2]; preclinical studies and short phase I and phase II clinical trials
  tolerance: good tolerance
